Measured values published in patent publication US6342499B1, “Parasitic and saprophagous mite control in beneficial insects” (BASF Aktiengesellschaft, priority 1998, dated 2002).

Experiments:
Assay type in all cases: in vivo
[1] = system: honeybees (Apis mellifera); assay: Example 4: METI, topical treatment of honeybees from hives 70% infested with Varroa; bee mortality; settings: 5 days at 31° C.
Description: (§1) Honeybees (Apis mellifera) taken from hives which are 70% infested with Varroa jacobsoni are chilled to immobilize the bees. A 1 μl droplet of an acetone solution of test compound is applied to the dorsal abdomen of each bee; control bees receive a 1 μl droplet of acetone. A total of 50-52 bees are treated for each dose rate tested. The treated bees are placed in an incubator at 31° C. in the dark and fed 50% sugar water ad libitum for 5 days. After incubation, the bees are examined for mortality and mite infestation.

Varroa jacobsoni = assay: Example 4: METI, topical treatment of honeybees from hives 70% infested with Varroa; parasite mortality; settings: 5 days at 31° C.
Description: as §1

[2] = system: Acarapis woodi (trachea mites); assay: Example 3: tracheal mites walked across glass slides dipped in test compound; time to 100% mortality; settings: slides dipped in 500 ppm acetone solution
Description: In this evaluation, honeybees (Apis mellifera) which are infested with Acarapis woodi (trachea mites) are dissected to remove the infested tracheae. Glass microscope slides are dipped into acetone solutions of test compound (500 ppm) and the acetone is allowed to evaporate. Infested tracheae are placed directly on the treated slides. The mites are removed from the tracheae by dissection and forced to walk across the treated area. The elapsed time is recorded for 100% mortality, i.e. no movement is observed upon agitation.

Drosophila melanogaster = assay: Example 5: treated paper strips in mite-infested Drosophila culture vials; fly mortality; settings: treated paper strip; for % Mortality Drosophila Adults: after 5 days at 25° C.; for % Mortality Drosophila larvae: after 15 days, percent of expected progeny vs untreated control
Description: (§2) Paper towel strips (2×7 cm) are dipped into an acetone solution of test compound and allowed to dry. Control paper towel strips are dipped into acetone and allowed to dry. Treated strips are placed in 2.5×9.5 cm culture vials containing a standard cornmeal-molasses-agar diet, such that the strips are inserted about 1 cm into the diet. Five pairs of heavily infested, newly emerged Drosophila melanogaster are placed into the test vials and incubated at 25° C. After 5 days, the adult flies are evaluated for % mortality and are removed rom each test vial. After 15 days, the mites [Proctoloaelaps sp.(Proct) and Histiostoma sp.(Hist)] and insect larva/pupa are evaluated for mortality and recorded as a percent of expected progeny as determined by the untreated control. At 14 days approximately 200-500 Histiostoma sp. mites (Hist) and approximately 50 Proctolaelaps sp. mites (Proct) are present in the untreated controls.

[3] = system: Proctolaelaps sp. mites (Proct); assay: Example 5: treated paper strips in mite-infested Drosophila culture vials; Proctolaelaps mortality; settings: treated paper strip, after 15 days, percent of expected progeny vs untreated control
Description: as §2

[4] = system: Histiostoma sp. mites (Hist); assay: Example 5: treated paper strips in mite-infested Drosophila culture vials; Histiostoma mortality; settings: treated paper strip, after 15 days, percent of expected progeny vs untreated control
Description: as §2

CCCCCCCCCCCCC1=C(OC(C)=O)C(=O)c2ccccc2C1=O [Acequinocyl, acequinocyl]
% Mortality Bees ([1]; dose 0.1 μg/bee): 15%
% Mortality Bees ([1]; dose 1.0 μg/bee): 10%
% Mortality Bees ([1]; dose 10.0 μg/bee): 42%
% Mortality Parasites (Varroa jacobsoni; dose 0.1 μg/bee): 12%
% Mortality Parasites (Varroa jacobsoni; dose 1.0 μg/bee): 0%
% Mortality Parasites (Varroa jacobsoni; dose 10.0 μg/bee): 83%

Fc1ccc(Oc2cc(Oc3ccc(Cl)c(C(F)(F)F)c3)ncn2)cc1C(F)(F)F [C]
Time required in minutes to achieve 100% mortality ([2]; Rep. 1): 16 min
Time required in minutes to achieve 100% mortality ([2]; Rep. 2): 16 min
Time required in minutes to achieve 100% mortality ([2]; Rep. 3): 15 min
% Mortality Drosophila Adults (Drosophila melanogaster; dose 10 ppm): 15%
% Mortality Drosophila larvae (Drosophila melanogaster; dose 10 ppm): 0%
% Mortality Drosophila Adults (Drosophila melanogaster; dose 50 ppm): 20%
% Mortality Drosophila larvae (Drosophila melanogaster; dose 50 ppm): 53%
% Mortality Drosophila Adults (Drosophila melanogaster; dose 100 ppm): 100%
% Mortality Drosophila larvae (Drosophila melanogaster; dose 100 ppm): 73%
% Mortality Mites Proct ([3]; dose 10 ppm): 40%
% Mortality Mites Proct ([3]; dose 50 ppm): 100%
% Mortality Mites Proct ([3]; dose 100 ppm): 100%
% Mortality Mites Hist ([4]; dose 10 ppm): 90%
% Mortality Mites Hist ([4]; dose 50 ppm): 100%
% Mortality Mites Hist ([4]; dose 100 ppm): 100%

CC(C)(C)c1ccc(CCOc2ncnc3ccccc23)cc1 [Fenazaquin, fenazaquin]
% Mortality Bees ([1]; dose 0.012 μg/bee): 18%
% Mortality Bees ([1]; dose 0.12 μg/bee): 14%
% Mortality Bees ([1]; dose 1.2 μg/bee): 18%
% Mortality Parasites (Varroa jacobsoni; dose 0.012 μg/bee): 19%
% Mortality Parasites (Varroa jacobsoni; dose 0.12 μg/bee): 27%
% Mortality Parasites (Varroa jacobsoni; dose 1.2 μg/bee): 87%

Cc1nn(C)c(Oc2ccccc2)c1C=NOCc1ccc(C(=O)OC(C)(C)C)cc1 [Fenpyroximate, fenpyroximate]
% Mortality Bees ([1]; dose 0.003 μg/bee): 13%
% Mortality Bees ([1]; dose 0.03 μg/bee): 10%
% Mortality Bees ([1]; dose 0.3 μg/bee): 24%
% Mortality Parasites (Varroa jacobsoni; dose 0.003 μg/bee): 7%
% Mortality Parasites (Varroa jacobsoni; dose 0.03 μg/bee): 30%
% Mortality Parasites (Varroa jacobsoni; dose 0.3 μg/bee): 100%

CC(C)(C)c1ccc(CSc2cnn(C(C)(C)C)c(=O)c2Cl)cc1 [Pyridaben, pyridaben]
% Mortality Bees ([1]; dose 0.001 μg/bee): 12%
% Mortality Bees ([1]; dose 0.01 μg/bee): 10%
% Mortality Bees ([1]; dose 0.1 μg/bee): 20%
% Mortality Parasites (Varroa jacobsoni; dose 0.001 μg/bee): 14%
% Mortality Parasites (Varroa jacobsoni; dose 0.01 μg/bee): 0%
% Mortality Parasites (Varroa jacobsoni; dose 0.1 μg/bee): 100%
